The assay has as its system HEK293 cells. Briefly: Endogenous ceramide, HexCer and SM levels in cells treated 24 h, targeted LC-MS/MS. Type of assay: cell-based. As to conditions: 24 h. How it is done: Lipids were then extracted using MTBE/methanol/water as described above.
HEK293 cell culture experiment: Levels of each lipid in P053-treated HEK293 cells were normalised to the mean of the vehicle control group, and each concentration was compared to the control using ANOVA with Dunnett’s post-test. P values were adjusted for multiple comparisons in GraphPad PRISM.
Supplementary Figure 1. Ceramide, SM, and HexCer levels in HEK293 cells treated with
P053. Absolute lipid levels were determined by targeted LC-MS/MS, relative to external
standard curves. Results are mean ± SEM (n = 4) from one of two identical experiments.
Statistically significant results, based on two independent experiments, are as indicated in
Figure 2b-d. Raw data for these figures is provided in Supplementary Data File 1.

Several values for one entry are separate records, joined by “and”; a condition that tells them apart may be missing. Equal entries are not always repeated.

In the case of `C[C@@](N)(CO)CCc1ccc(OCc2ccc(Cl)c(Cl)c2)cc1` [P053, (S)-2-amino-4-(4-(3,4-dichlorobenzyloxy)phenyl)-2-methylbutan-1-ol], the “C18 HexCer” value is on record as “selectively reduced”, the “C18 SM” value was “selectively reduced”, the “C24:0 ceramide” value is given as “minor increase” and the “other forms of ceramide” value was “No other forms of ceramide were reduced”. The “reduction of C18:0 ceramide” value (100 nM) was found to be 53%. Further, for the setting “HEK293 cells, P053 10 nM”, the “14:0 SM level” value is 86.4023 percentage of the vehicle control group and 87.5076 percentage of the vehicle control group and 111.4 percentage of the vehicle control group and 123.229 percentage of the vehicle control group and 107.24 percentage of the vehicle control group and 105.555 percentage of the vehicle control group and 105.116 percentage of the vehicle control group and 89.1667 percentage of the vehicle control group; the “16:0 Cer level” value is 108.507 percentage of the vehicle control group and 85.9381 percentage of the vehicle control group and 87.0921 percentage of the vehicle control group and 116.695 percentage of the vehicle control group and 104.33 percentage of the vehicle control group and 104.933 percentage of the vehicle control group and 106.707 percentage of the vehicle control group and 101.056 percentage of the vehicle control group; the “16:0 HexCer level” value is 83.0725 percentage of the vehicle control group and 87.9406 percentage of the vehicle control group and 128.577 percentage of the vehicle control group and 99.1213 percentage of the vehicle control group and 108.606 percentage of the vehicle control group and 107.974 percentage of the vehicle control group and 99.8354 percentage of the vehicle control group and 80.4305 percentage of the vehicle control group; the “16:0 SM level” value was 90.9817 percentage of the vehicle control group and 95.8078 percentage of the vehicle control group and 105.689 percentage of the vehicle control group and 116.265 percentage of the vehicle control group and 95.5779 percentage of the vehicle control group and 88.0621 percentage of the vehicle control group and 88.5464 percentage of the vehicle control group and 91.6422 percentage of the vehicle control group. Under “HEK293 cells, P053 10 nM”, the “16:1 SM level” value was 86.5462 percentage of the vehicle control group and 91.7143 percentage of the vehicle control group and 104.066 percentage of the vehicle control group and 119.449 percentage of the vehicle control group and 101.997 percentage of the vehicle control group and 91.4576 percentage of the vehicle control group and 97.8179 percentage of the vehicle control group and 89.4979 percentage of the vehicle control group; the “18:0 Cer level” value was 75.1597 percentage of the vehicle control group and 77.1381 percentage of the vehicle control group and 83.1016 percentage of the vehicle control group and 101.889 percentage of the vehicle control group and 100.455 percentage of the vehicle control group and 110.825 percentage of the vehicle control group and 90.177 percentage of the vehicle control group and 106.32 percentage of the vehicle control group; the “18:0 SM level” value is 87.3577 percentage of the vehicle control group and 90.1399 percentage of the vehicle control group and 117.324 percentage of the vehicle control group and 82.3337 percentage of the vehicle control group and 88.9916 percentage of the vehicle control group and 83.1732 percentage of the vehicle control group and 88.0529 percentage of the vehicle control group; the “18:1 SM level” value was 90.5796 percentage of the vehicle control group and 93.2037 percentage of the vehicle control group and 88.8318 percentage of the vehicle control group and 108.011 percentage of the vehicle control group and 95.5914 percentage of the vehicle control group and 79.238 percentage of the vehicle control group and 78.9032 percentage of the vehicle control group and 84.4686 percentage of the vehicle control group. Moreover, under “HEK293 cells, P053 10 nM”, the “22:0 Cer level” value is 104.639 percentage of the vehicle control group and 100.078 percentage of the vehicle control group and 73.3754 percentage of the vehicle control group and 101.613 percentage of the vehicle control group and 114.746 percentage of the vehicle control group and 118.068 percentage of the vehicle control group and 114.641 percentage of the vehicle control group and 113.437 percentage of the vehicle control group; the “22:0 HexCer level” value was 98.6933 percentage of the vehicle control group and 87.3308 percentage of the vehicle control group and 106.948 percentage of the vehicle control group and 113.522 percentage of the vehicle control group and 107.776 percentage of the vehicle control group and 119.187 percentage of the vehicle control group and 120.197 percentage of the vehicle control group and 88.6877 percentage of the vehicle control group; the “22:0 SM level” value is 77.9336 percentage of the vehicle control group and 82.0524 percentage of the vehicle control group and 72.1049 percentage of the vehicle control group and 117.359 percentage of the vehicle control group and 120.117 percentage of the vehicle control group and 100.918 percentage of the vehicle control group and 103.279 percentage of the vehicle control group and 105.704 percentage of the vehicle control group; the “22:1 SM level” value was 103.42 percentage of the vehicle control group and 102.614 percentage of the vehicle control group and 99.3902 percentage of the vehicle control group and 105.25 percentage of the vehicle control group and 111.738 percentage of the vehicle control group and 105.36 percentage of the vehicle control group and 88.0812 percentage of the vehicle control group and 91.3619 percentage of the vehicle control group. For the same compound, for the setting “HEK293 cells, P053 10 nM”, the “24:0 HexCer level” value was 87.0807 percentage of the vehicle control group and 93.0525 percentage of the vehicle control group and 81.1451 percentage of the vehicle control group and 103.31 percentage of the vehicle control group and 112.306 percentage of the vehicle control group and 129.078 percentage of the vehicle control group and 103.585 percentage of the vehicle control group and 92.4822 percentage of the vehicle control group; the “24:0 SM level” value is 97.1928 percentage of the vehicle control group and 98.2718 percentage of the vehicle control group and 75.7857 percentage of the vehicle control group and 112.798 percentage of the vehicle control group and 112.334 percentage of the vehicle control group and 114.303 percentage of the vehicle control group and 127.22 percentage of the vehicle control group and 98.002 percentage of the vehicle control group; the “24:1 Cer level” value is 105.077 percentage of the vehicle control group and 87.804 percentage of the vehicle control group and 67.6975 percentage of the vehicle control group and 121.49 percentage of the vehicle control group and 108.722 percentage of the vehicle control group and 121.479 percentage of the vehicle control group and 112.469 percentage of the vehicle control group and 111.695 percentage of the vehicle control group; the “24:1 HexCer level” value was 100.2 percentage of the vehicle control group and 101.908 percentage of the vehicle control group and 107.061 percentage of the vehicle control group and 109.845 percentage of the vehicle control group and 113.174 percentage of the vehicle control group and 115.061 percentage of the vehicle control group and 107.49 percentage of the vehicle control group and 96.3768 percentage of the vehicle control group.

(Values after paper PMC6104039 (Nature Communications, 2018).)
